Several values for one entry are separate records, joined by “and”; a condition that tells them apart may be missing. Equal values may be shown once. Read-outs that look alike come from different tables or passages of the source.
Columns and labels:
[1] = system: luciferase; experiment: ATP-dependent cell viability with CellTiter-Glo kit, competition with cellular ATP; assay type: cell-based; details: 10 μM
Protocol: (§1) Luciferase reporter assays are dependent on the activity of the luciferase enzyme to catalyze the conversion of luciferin to oxyluciferin in the presence of ATP and oxygen, generating light in the process. Therefore, compounds that may directly interfere with the enzyme activity should be distinguished from those that inhibit the signaling activity reported inside the cells. To test this, a PXR-luciferase reporter system expressed in HepG2 cells was used and a luciferase assay was performed by adding 10 μM BEI-9 to the cells five minutes before measuring luciferase catalyzed reactions. In parallel, ATP-dependent cell viability was also measured using a CellTiter-Glo® kit to examine if BEI-9 would compete with cellular ATP, which is required for the luciferase activity.

[2] = system: SW480 cancer cells; experiment: Cell cycle analysis by flow cytometry; assay type: cell-based
Protocol: (§2) SW480 colon cancer cells were treated with either vehicle control (DMSO) or 25 μM 3-(2-bromoethyl) indole. […] By comparison, vehicle-treated cells rapidly proliferated and visibly filled the surface on which they were seeded. Microphotographs were taken 24 hours (a and c) and 48 hours (b and d) after the treatments. […] To further examine the possibility of inhibited cell proliferation, cell cycle analysis was performed by flow cytometry on cells that were treated with 50 μM 3-(2-bromoethyl) indole for 24 and 48 hours. […] In fact, the specific effect of treating cells with 3-(2-bromoethyl) was to “freeze” the cell growth during treatment. This is illustrated in FIG. 3.
(§3) Increasing concentrations of 3-(2-bromoethyl) indole (from 12.5 μM to 100 μM) were tested on SW480 colon cancer cells, and viability of the treated cells was measured by the CellTiter-Glo® (Promega® Corporation) method. […] Similarly, dose response examination and cell cycle analysis using variable concentrations of 3-(2-bromoethyl) indole ranging from 12.5 to 100 μM confirms that even doses lower than 50 μM inhibit cell proliferation. Thus, useful embodiments of the present invention provide for a method of inhibiting cancer cell proliferation, comprising treating the cancer cells with 3-(2-bromoethyl) indole with concentrations of greater than or equal to 0.2 μM, or in a range of 1.0 μM to 50.0 μM, or more specifically, from 5.0 μM to 25.0 μM.
It was also examined by flow cytometry whether the combination of CPT and BEI-9 would induce cell apoptosis as measured by accumulation of sub-G1 population. […] Referring to FIG. 17, cell cycle profiles of parental SW480 cells treated with DMSO (a), BEI-9 (b), CPT (c), BEI-9 and CPT co-treatment (d) or 24 hours of CPT followed by 24 hours of only BEI-9 (e) are shown. The short arrow points to the sub-G1 population of cells resulting from the combination treatment.

[3] = biological target: T1, luciferase (Photinus pyralis, UniProt P08659); assay type: cell-based; details: HepG2 PXR-luciferase, 10 μM added five minutes before measuring
T1 construct: expressed in transfected cells; host or cells: HepG2
T1 sequence (P08659 whole entry, species assumed): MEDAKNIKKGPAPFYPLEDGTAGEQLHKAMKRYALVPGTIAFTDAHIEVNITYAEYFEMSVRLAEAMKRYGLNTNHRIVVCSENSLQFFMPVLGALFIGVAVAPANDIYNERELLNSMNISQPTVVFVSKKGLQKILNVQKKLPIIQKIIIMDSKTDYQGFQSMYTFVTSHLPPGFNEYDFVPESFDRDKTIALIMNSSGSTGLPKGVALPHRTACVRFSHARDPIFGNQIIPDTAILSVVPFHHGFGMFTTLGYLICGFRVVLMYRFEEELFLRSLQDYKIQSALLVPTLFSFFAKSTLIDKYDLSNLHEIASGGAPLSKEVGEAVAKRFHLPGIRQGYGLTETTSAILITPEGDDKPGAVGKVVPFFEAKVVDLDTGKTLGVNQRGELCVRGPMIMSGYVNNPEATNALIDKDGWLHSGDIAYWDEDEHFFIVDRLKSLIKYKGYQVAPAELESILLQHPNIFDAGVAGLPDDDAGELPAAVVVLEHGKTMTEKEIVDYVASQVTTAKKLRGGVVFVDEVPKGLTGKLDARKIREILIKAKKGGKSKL
Protocol: as §1

[4] = system: SW480 cells; experiment: Microphotographs of cells for signs of apoptosis (membrane blebs); assay type: cell-based; details: for sign of cell apoptosis, single agent: SW480, 25 ng/ml TNFα alone or 5 μM 3-(2-bromoethyl) indole alone
Protocol: Microphotographs were taken of SW480 cells treated with vehicle control (DMSO) (top left), 25 ng/ml TNFα (top right), 5 μM 3-(2-bromoethyl) indole (bottom left), and a combination of 25 ng/ml TNFα and 5 μM 3-(2-bromoethyl) indole (bottom right).
(§4) Second, it was determined whether cytokine-induced NF-kB activation can be blocked by 3-(2-bromoethyl) indole. In prior studies, SW480-NFL cells were tested and confirmed as being responsive to TNFα, a canonical NF-kB pathway inducer, and various clinical chemotherapeutic drugs. To this end, TNFα was first used to activate NF-kB in these reporter cells. It was examined whether co-treatment would interfere with activation of the NF-kB pathway. SW480-NFL cells were treated with 25 ng/ml TNFα as an activator, and with 0.5 μM, 5 μM, or 10 μM BEI-9 as test compound. […] The effect of such a combination treatment is shown in the […] microphotograph in FIG. 14. Referring to FIG. 14, microphotographs were taken of SW480 cells treated with vehicle control (DMSO) (top left), 25 ng/ml TNFα (top right), 5 μM 3-(2-bromoethyl) indole (bottom left), and a combination of 25 ng/ml TNFα and 5 μM 3-(2-bromoethyl) indole (bottom right). Accordingly, in addition to inhibiting NF-kB activation, the addition of 3-(2-bromoethyl) indole to TNFα treated cells may divert TNF receptor-initiated receptor signaling towards apoptosis.

[5] = system: SW480 colon cancer cells; experiment: MTT assay of cell viability and proliferation; assay type: cell-based
Protocol: SW480 colon cancer cells were treated with solvent DMSO (CONT), staurosporine (STS)—an agent that is known to kill cancer cells—and four select indole derivative compounds. Cell viability and proliferation was examined under a MTT assay protocol. […] The control solvent is shown as in FIG. 1A as the bar corresponding to “CONT.” When treated with only the control solvent, the cancer cells are 100% viable. Yet, according to FIG. 1A, treating cancer cells with 3-(2-bromoethyl) indole reduces cancer cell viability and proliferation by about 60% within 48 hours. As noted in FIG. 1A, 3-(2-bromoethyl) indole is represented by “INDOLE 9.” By comparison, a similar concentration of indole-3-carbinol reduces cell proliferation only by about 30%. As noted in FIG. 1A, indole-3-carbinol is represented by “INDOLE 14.”

[6] = system: NF-kB; experiment: NF-kB luciferase reporter assay in SW480-NFL cells; assay type: cell-based
Excerpt: One of the regulators of cyclin D1 is the multifunctional transcription factor NF-kB. The effect of 3-(2-bromoethyl) indole on NF-kB signaling was also examined. […] In carrying out the test, NF-kB reporter SW480 cells (SW-NFL) were used. The cells were stably transduced with a construct containing NF-kB-response elements linked to the luciferase gene as the reporter. Previous work has shown that these cells activate NF-kB in response to TNFα, as well as some clinically used chemotherapeutic drugs. As an experimental response to NF-kB activation, these cells express increased amounts of luciferase enzyme, which can be detected by luminescence assay.
First, the effect of 3-(2-bromoethyl) indole and each of the thirteen other indole compounds on the basal levels of luciferase activity was assessed. An equal number of SW480-NFL cells seeded in a 96-well plate were treated with control vehicle (DMSO) or one of the fourteen indole-derivative test compounds. Luciferase enzyme activity was measured 24 hours after the treatment. […] See FIG. 12, where BEI-9 is the 9th indole test sample depicted in the graph.
as §4
In prior art, it has been shown that camptothecin (also referred to herein as “CPT”), one of adjuvant drugs clinically used to treat various types of cancers, activates NF-kB in SW480 reporter cells at peak activating concentrations of 0.5 μM or 1.0 μM. The consequence of NF-kB activation as a result of treatment with adjuvant chemotherapy drugs is still under study. To examine whether a combination of CPT with BEI-9 suppresses a drug-induced NF-kB response in SW480 reporter cells, such cells were treated with 0.5 μM CPT and varying concentrations (0.2 μM-12.5 μM) of BEI-9.

[7] = system: HCT116 cells; experiment: MTS assay viability index; assay type: cell-based; details: HCT116, variable concentrations
Protocol: (§5) The activity of 3-(2-bromoethyl) indole on another colon cancer cell line, HCT116, was also tested. […] The absorbance reading at a wavelength of 490 nm is shown on the Y-axis.

[8] = system: HCT116 cells; experiment: Microphotograph dose response of proliferation; assay type: cell-based; details: 5 μM and 10 μM
Protocol: as §5

[9] = system: SW480 colon cancer cells; experiment: CellTiter-Glo cell viability; assay type: cell-based; details: Homo sapiens; SW480, 12.5 μM; read-out: reduction in cell viability
Protocol: as §3

[10] = system: SW480 colon cancer cells; experiment: Recovery after wash-out of compound; assay type: cell-based; details: SW480, 25 μM for 48 hours, then four days in fresh medium
Protocol: To examine if treated cells would recover after the compound was washed out, SW480 colon cancer cells were treated with 25 μM 3-(2-bromoethyl) indole for 48 hours, then the monolayer was rinsed 3 times with culture medium to remove the compound. The cell monolayers were left in the fresh growth medium for four days of further incubation. Results shown in FIG. 10 reveal that the vehicle-treated SW480 cells rapidly grew to full confluency in just 48 hours.

[11] = system: SW480 cells; experiment: Scratch wound healing assay; assay type: cell-based; details: SW480, 25 μM, up to 96 hours
Protocol: Scratch wound healing assay was performed on SW480 cells grown to confluence. Confluent SW480 cells were scratched with a pipette tip to create cell wounds, which were treated with vehicle control solvent (DMSO) and 25 μM 3-(2-bromoethyl) indole. The ability of the cells to migrate and fill the gap created by the scratch was evaluated. […] By comparison, vehicle-treated cells filled the scratch within 96 hours. […] The ability of the cells to migrate and fill the gap was followed by light microscopy imaging at 24-hour intervals. […] The scratch wound is most visible as a clear space at t0. […] Only a few single cells treated with 3-(2-bromoethyl) indole were visible and scattered in the gap. Moreover, there was no evidence of cell division.

[12] = system: cyclin D1; experiment: Immunoblotting of cyclin D1 protein level; assay type: cell-based; details: SW480, immunoblotting
Protocol: (§6) Progression through the cell cycle is regulated by cyclins and their enzyme partner, cyclin dependent kinases (CDK). The regulation of the cyclin-CDK pair activity is controlled by synthesis and degradation of the cyclin moiety. Cyclin D1 is one of the regulatory cyclins involved in the G1-S transition of cells, and is a known oncogene. As cyclin D1 is a key regulator of cell cycle progression, levels of cyclin D1 protein in both control cells and treated cells were assessed by immunoblotting. Also assessed were the levels of cyclin A, another cyclin regulating both G1-S as well as G2-M transitions. […] Accordingly, inhibiting the expression of cyclins likely contributes to the observed “freezing” effect described previously.

[13] = system: SW480 colon cancer cells; experiment: Microscopic evaluation of cell proliferation; assay type: cell-based; details: SW480, 25 μM, 24 and 48 hours
Protocol: as §2
Increasing concentrations of 3-(2-bromoethyl) indole (from 12.5 μM to 100 μM) were tested on SW480 colon cancer cells, and viability of the treated cells was measured by the CellTiter-Glo® (Promega® Corporation) method. […] Similarly, dose response examination and cell cycle analysis using variable concentrations of 3-(2-bromoethyl) indole ranging from 12.5 to 100 μM confirms that even doses lower than 50 μM inhibit cell proliferation. […]

[14] = system: cyclin A; experiment: Immunoblotting of cyclin A protein level; assay type: cell-based; details: SW480, immunoblotting
Protocol: as §6

[15] = system: NF-kB; details: SW480 reporter cells; cited from earlier work

## BrCCc1c[nH]c2ccccc12 [3-(2-bromoethyl) indole]
[1]
  inhibition of luciferase by competing with cellular ATP: does not inhibit luciferase
[2]; SW480, 50 μM, 24 and 48 hours
  cell cycle profile, proliferation: effectively prevents proliferation
[2]; SW480, 24 and 48 hours after treatment
  induction of sub-G1 population indicative of apoptosis: no apparent induction of sub-G1 population
[2]; SW480, CPT for 24 hours followed by BEI-9 for 24 hours
  apoptosis as accumulation of sub-G1 population, sequential treatment: appearance of a distinct sub-G1 population
[2]; SW480, dose response examination and cell cycle analysis, 12.5 to 100 μM
  doses that inhibit cell proliferation: lower than 50 μM
[2]; SW480, flow cytometry
  apoptosis as accumulation of sub-G1 population, co-treatment of CPT and BEI-9: did not induce apoptosis
  apoptosis as accumulation of sub-G1 population, single agent: did not induce apoptosis
[2]; SW480, highest concentration tested 100 μM
  cell death in cell cycle analysis: Cell death is noticed
[3]
  direct inhibition of luciferase: does not inhibit luciferase
[4]
  sign of cell apoptosis, single agent: fails to indicate any sign of cell apoptosis
[4]; SW480, 5 μM compound combined with 25 ng/ml TNFα
  sign of cell apoptosis, combination with TNFα: appearance of cells with membrane blebs
[5]; SW480, within 48 hours, relative to control solvent DMSO
  reduction of cancer cell viability and proliferation: about 60%
[6]; SW480-NFL, 25 ng/ml TNFα
  difference between the effects of 0.5 μM and 5 μM on TNFα-activated NF-kB reporter: over 10 fold
[6]; SW480-NFL, 25 ng/ml TNFα, 5 μM or 10 μM compound
  activation of NF-kB reporter activity by TNFα: completely abolished
[6]; SW480-NFL, 24 hours after treatment
  basal luciferase reporter activity: reduced the reporter activity
[6]; SW480 reporter cells, 0.5 μM CPT, 0.2 μM BEI-9
  effect on CPT-induced NF-kB reporter activity: did not have any noticeable effect
[6]; SW480 reporter cells, 0.5 μM CPT, BEI-9 concentrations greater than 0.8 μM, versus CPT-only
  inhibition of CPT-induced NF-kB response: more than 50%
[7]
  viability index (absorbance 490 nm): decreased the viability index
[8]
  proliferation of HCT116 cells: completely stopped the proliferation
[9]
  cytotoxicity at 12.5 µM: ~50%
[10]
  recovery of cells after wash-out: not able to recover at all
[11]
  motility, ability to migrate and fill the wound gap: markedly inhibited the motility
[12]
  expression of cyclin D1 protein: drastically decreased
[13]
  cell proliferation by microscopic evaluation: failed to multiply
[14]
  expression of cyclin A protein: drastically decreased

## COc1ccc2[nH]ccc2c1 [5-methoxyindole, reference compound]
[12]
  expression of cyclin D1 protein: did not exhibit the same beneficial effects
[14]
  expression of cyclin A protein: did not exhibit the same beneficial effects

## TNFα
[4]
  sign of cell apoptosis, single agent: fails to indicate any sign of cell apoptosis

## CC[C@@]1(O)C(=O)OCc2c1cc1n(c2=O)Cc2cc3ccccc3nc2-1 [camptothecin]
[15]
  peak activating concentrations for NF-kB activation: 0.5 µM and 1.0 µM
[2]; SW480, flow cytometry
  apoptosis as accumulation of sub-G1 population, single agent: did not induce apoptosis

## OCc1c[nH]c2ccccc12 [indole-3-carbinol, reference compound]
[5]
  reduction of cancer cell viability and proliferation: about 30%

Reference: patent US9877949B2, “Anticancer treatment methods involving analogs and derivatives of 3-(2-substituted-ethyl) indole compounds” (TUSKEGEE UNIVERSITY, priority 2013, dated 2018)
